Reference: ChEMBL document CHEMBL4665793, “Screening and Reverse-Engineering of Estrogen Receptor Ligands as Potent Pan-Filovirus Inhibitors” (J Med Chem, 2020)
Activity calls are given as the source filed them. The calls are words filed in the database; no cut-off is given here.

Key:
Marburgvirus [1] = format: functional, organism-based; settings: Orthomarburgvirus, Angola, A549, 24 h
in vitro [2] = settings: human, A549 cells
in vitro [3] = settings: human, A549 cells; remark: listed apart in the source
Marburgvirus [4] = assay: microbe, parasite or virus in culture; settings: Orthomarburgvirus, Musoke, A549, 48 h
Zaire ebolavirus = assay: microbe, parasite or virus in culture; settings: Mayinga, Zaire, 1976, A549, 48 h
[5] = tested on: Vesicular stomatitis virus; assay: Antiviral activity against vesicular stomatitis virus assessed as inhibition of viral entry; format: functional, organism-based
[6] = target: T1, Estrogen receptor (Homo sapiens) (UniProt P03372); assay: Agonist activity at ER-alpha in human MCF-7:WS8 cells transfected with an estrogen response element incubated for 18 hrs by luciferase reporter gene assay; format: cell-based; settings: MCF7
T1 sequence (whole entry): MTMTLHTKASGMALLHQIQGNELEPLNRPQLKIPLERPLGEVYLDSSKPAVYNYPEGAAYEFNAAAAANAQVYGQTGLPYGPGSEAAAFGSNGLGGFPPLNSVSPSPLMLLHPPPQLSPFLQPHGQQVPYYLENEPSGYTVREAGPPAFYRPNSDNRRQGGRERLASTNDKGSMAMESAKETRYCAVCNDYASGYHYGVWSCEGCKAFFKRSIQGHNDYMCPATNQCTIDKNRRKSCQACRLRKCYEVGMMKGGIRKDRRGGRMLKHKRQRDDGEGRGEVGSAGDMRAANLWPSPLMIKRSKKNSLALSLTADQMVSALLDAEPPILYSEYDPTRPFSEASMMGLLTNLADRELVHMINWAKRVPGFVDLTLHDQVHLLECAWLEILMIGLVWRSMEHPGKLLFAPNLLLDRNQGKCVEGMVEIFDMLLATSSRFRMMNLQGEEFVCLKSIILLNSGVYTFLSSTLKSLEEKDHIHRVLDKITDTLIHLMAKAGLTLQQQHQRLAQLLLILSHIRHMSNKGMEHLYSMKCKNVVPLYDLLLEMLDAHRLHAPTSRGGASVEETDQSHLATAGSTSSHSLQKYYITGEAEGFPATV

Ebolavirus [7] = assay: Antiviral activity against Ebolavirus (pRESTV) assessed as inhibition of viral entry; format: functional, organism-based
Mengla dianlovirus = assay: Antiviral activity against Mengla-virus assessed as inhibition of viral entry; format: functional
Ebolavirus [8] = assay: Antiviral activity against Ebolavirus (pBDBV) assessed as inhibition of viral entry; format: functional, organism-based
[9] = target: T1, Estrogen receptor (Homo sapiens); assay: Antagonist activity at ER-alpha in human MCF-7:WS8 cells transfected with an estrogen response element assessed as suppression of estrogen-induced response incubated for 18 hrs by luciferase reporter gene assay; format: cell-based; settings: MCF7
Ebolavirus [10] = assay: Antiviral activity against Ebolavirus Tai Forest assessed as inhibition of viral entry; format: functional, organism-based
A549 = format: cell-based; settings: human
Influenza A virus = assay: Antiviral activity against Influenza A virus H5N1 assessed as inhibition of viral entry; format: functional, organism-based

SMILES	IC50 (Marburgvirus [1])	selectivity ratio (in vitro [2])	selectivity ratio (in vitro [3])	IC50 (Marburgvirus [4])	IC50 (Zaire ebolavirus)	inhibition [5]	Activity [6]	inhibition (Ebolavirus [7])	inhibition (Mengla dianlovirus)	inhibition (Ebolavirus [8])	inhibition [9]	inhibition (Ebolavirus [10])	CC50 (A549)	inhibition (Influenza A virus)
Oc1ccc2c(Oc3ccc(OCCN4CCCCC4)cc3)c(-c3ccccc3)sc2c1	> 6250 nM	20	45	670 nM	300 nM	–	–	–	–	–	–	–	–	–
CC/C(=C(/c1ccc(NC(=O)CN2CCOCC2)cc1)c1ccc(OCCN2CCCC2)cc1)c1ccccc1	2800 nM	14	47	1210 nM	350 nM	–	–	–	–	–	–	–	–	–
Cc1c(-c2ccc(O)cc2)nn(-c2ccc(O)cc2)c1-c1ccc(OCCN2CCCCC2)cc1	–	12	11	1190 nM	1310 nM	–	–	–	–	–	–	–	–	–
Cc1cc(F)cc(C)c1C(=O)c1sc2cc(O)ccc2c1Oc1ccc(OCCN2CC(CF)C2)cc1	–	15	21	1870 nM	1320 nM	–	–	–	–	–	–	–	–	–
COc1ccc2c(Oc3ccc(OCCN4CCCCC4)cc3)c(-c3ccc(Br)cc3)sc2c1	–	37	74	1250 nM	630 nM	–	–	–	–	–	–	–	–	–
CC/C(=C(/c1ccc(NC(=O)C2CCN(C)C2)cc1)c1ccc(OCCN2CCCC2)cc1)c1ccccc1 (stereo not drawn)	960 nM	30	590	720 nM	20 nM	inactive	inactive	Active	Active	Active	inactive	Active	11800 nM	inactive
COc1ccc2c(c1)CCC(c1ccccc1)=C2c1ccc(OCCN2CCCC2)cc1 [NAFOXIDINE]	> 6250 nM	6	82	1300 nM	100 nM	–	–	–	–	–	–	–	–	–
Nc1ccc(-c2sc3cc(O)ccc3c2Oc2ccc(OCCN3CCCCC3)cc2)cc1	> 6250 nM	> 69	> 770	1450 nM	130 nM	–	inactive	–	–	–	–	–	–	–
CC/C(=C(/c1ccc(N)cc1)c1ccc(OCCN2CCCC2)cc1)c1ccccc1	1780 nM	13	147	1070 nM	130 nM	–	–	–	–	–	–	–	–	–
CC/C(=C(/c1ccc(NCCN2CCOCC2)cc1)c1ccc(OCCN2CCOCC2)cc1)c1ccccc1	2900 nM	< 2	111	2180 nM	230 nM	–	–	–	–	–	–	–	–	–
CCC(=C(c1ccc(OCCN2CCCC2)cc1)c1ccc(OCCN2CCCC2)cc1)c1ccccc1	1560 nM	13	405	610 nM	20 nM	–	inactive	–	–	–	–	–	8100 nM	–
COc1ccc2c(Oc3ccc(OCCN4CCCCC4)cc3)c(-c3ccc(Br)cc3)[s+]([O-])c2c1 (stereo not drawn)	–	> 55	> 47	1810 nM	2140 nM	–	–	–	–	–	–	–	–	–
CC/C(=C(/c1ccc(NCCN2CCCC2)cc1)c1ccc(OCCN2CCCC2)cc1)c1ccccc1	> 25000 nM	18	79	> 12500 nM	330 nM	–	–	–	–	–	–	–	–	–
CC/C(=C(/c1ccc(NC(=O)CN2CCN(C)CC2)cc1)c1ccc(OCCN2CCCC2)cc1)c1ccccc1	360 nM	7	1400	420 nM	10 nM	–	–	–	–	–	–	–	–	–
COc1ccc2c(Oc3ccc(OCCN4CCCCC4)cc3)c(-c3ccccc3)sc2c1	> 6250 nM	8	88	3180 nM	260 nM	–	–	–	–	–	–	–	–	–
OCCOc1ccc(/C(=C(/CCCl)c2ccccc2)c2ccccc2)cc1 [OSPEMIFENE]	–	< 1	7	34400 nM	3800 nM	–	–	–	–	–	–	–	–	–
CC/C(=C(/c1ccc(NC(=O)C2CCN(C3CCN(C)CC3)CC2)cc1)c1ccc(OCCN2CCCC2)cc1)c1ccccc1	1070 nM	16	79	2050 nM	180 nM	–	–	–	–	–	–	–	–	–
CC1=C(c2ccc(O)cc2)[C@H](c2ccc(OCCN3CCCCC3)cc2)Oc2ccccc21	–	19	11	900 nM	1500 nM	–	–	–	–	–	–	–	–	–
CC/C(=C(/c1ccc(NC(=O)N2CCN(C)CC2)cc1)c1ccc(OCCN2CCCC2)cc1)c1ccccc1	1060 nM	11	740	750 nM	30 nM	–	–	–	–	–	–	–	–	–
CC/C(=C(/c1ccc(NC(=O)C2CCN(C)CC2)cc1)c1ccc(OCCN2CCCC2)cc1)c1ccccc1	640 nM	12	590	540 nM	10 nM	inactive	inactive	Active	Active	Active	inactive	Active	–	inactive
Cc1ccccc1C(=O)c1sc2cc(O)ccc2c1Oc1ccc(OCCN2CC(CF)C2)cc1	> 6250 nM	7	27	3880 nM	1020 nM	–	–	–	–	–	–	–	–	–
CN(C)CCOc1ccc(/C(=C(/CCCl)c2ccccc2)c2ccccc2)cc1 [TOREMIFENE]	3900 nM	6	229	2600 nM	70 nM	–	–	Active	Active	Active	–	Active	–	–
CCC(c1ccccc1)C(O)(c1ccc(OCCN(C)C)cc1)c1cccc(O)c1 (stereo not drawn)	–	9	22	4400 nM	1740 nM	–	–	–	–	–	–	–	–	–
CCNCCc1ccc(CN(CC)c2cc(OC)ccc2[C@@H]2CCc3cc(O)ccc3C2)cc1 [ELACESTRANT]	–	8	44	1300 nM	240 nM	–	–	–	–	–	–	–	–	–
Cc1c(-c2ccc(O)cc2)n(Cc2ccc(OCCN3CCCCCC3)cc2)c2ccc(O)cc12 [BAZEDOXIFENE]	–	6	10	3830 nM	2240 nM	–	–	–	–	–	–	–	–	–
Oc1ccc2c(Oc3ccc(OCCN4CCCCC4)cc3)c(-c3ccc(F)cc3)sc2c1	–	7	15	2040 nM	980 nM	–	–	–	–	–	–	–	–	–
COc1ccc(-c2sc3cc(OC)ccc3c2Oc2ccc(OCCN3CCC(CCNC(=O)CCCCNC(=O)OC(C)(C)C)CC3)cc2)cc1	–	76	57	600 nM	800 nM	–	–	–	–	–	–	–	–	–
CC/C(=C(/c1ccc(NC(=O)CN2CCOCC2)cc1)c1ccc(OCCN2CCOCC2)cc1)c1ccccc1	3240 nM	13	40	4230 nM	740 nM	–	–	–	–	–	–	–	–	–
CC/C(=C(/c1ccc(NC(=O)CC2CCN(C)CC2)cc1)c1ccc(OCCN2CCCC2)cc1)c1ccccc1	870 nM	33	1400	620 nM	6 nM	–	–	–	–	–	–	–	–	–
